The values that follow come from patent publication US4536396A, “Synergistic sweetening compositions” (Pfizer Inc., priority 1983, dated 1985).

Bounds are passed on as bounds.

Test [1] is described as follows: Sensory analysis of relative sweetness intensity and taste quality of aqueous solutions compared with sucrose solutions. How it is done: The relative sweetness intensity and quality of CP-54,802, AS-K and mixtures of CP-54,802 and AS-K were determined by sensory analysis. These determinations were carried out in a facility designed for controlled tasting, flavor research and evaluation of food additives, including a separate preparation room and individual tasting booths with complete air-conditioning, controlled lighting, running water and a sink for expectoration.
Aqueous solutions of sucrose were prepared at concentrations (w/w) of 2, 3, 4, 5, 6, 7, 8, 9, 10, 11 and 12% along with a sample of one of the test compounds at the levels specified in the test experiments. A beaker containing a solution of the test compound identified only by a coded digit was submitted to the taster by a co-worker along with a beaker containing the above sucrose solutions. The sweetness intensity of the test compound was compared with one or more of the sucrose control solutions to determine whether that particular sucrose reference sample was of lesser, greater or equal sweetness. The taste quality of the test sample was then characterized by comparison with the sucrose solution. In some instances a reference aqueous solution containing either CP-54,802 and/or AS-K alone was also used to characterize the taste quality of mixture of CP-54,802 and AS-K.
After selecting the particular sucrose solution equal in sweetness to the AS-K solution, subsequent test comparisons of the AS-K and sucrose solution at closest sweetness intensity were performed to recheck the intensity value and to characterize the taste quality of the AS-K. By this means, the following results were obtained: […]

A short description of test [2]: Taste quality and sweetening potency in typically prepared edible products (Table III). The source says:
The ultimate compositions for edible use, or for use as oral hygienic products or as formulated medicinal agents, are readily prepared, using methods generally known in the food technology and pharmaceutical arts. The taste quality of such typically prepared edible products prepared with sucrose, with AS-K alone and with one of present combinations as sweetening agent are summarized in Table III.

The conditions of test [3]: cited from earlier work.
Where [4] appears, read: at 2% sucrose equivalent in water.
Setting [5] is: at 3% sucrose equivalent in water.
Where [6] appears, read: at 4% sucrose equivalent in water.
Where [7] appears, read: at 5% sucrose equivalent in water.
[8] abbreviates: at 6% sucrose equivalent in water.
[9] abbreviates: at 7% sucrose equivalent in water, AS-K values above 6% only approximate.
The mark [10] stands for this setting: at 8% sucrose equivalent in water, AS-K values above 6% only approximate.
[11] abbreviates: at 9% sucrose equivalent in water, AS-K values above 6% only approximate.
The mark [12] stands for this setting: at 10% sucrose equivalent in water, AS-K values above 6% only approximate.
Setting [13] is: compared to 10% sucrose in water.
[14] abbreviates: equal in sweetness to 2% sucrose (w/w) in water.
Where [15] appears, read: equal in sweetness to 3% sucrose (w/w) in water.
Setting [16] is: equal in sweetness to 4% sucrose (w/w) in water.
[17] abbreviates: equal in sweetness to 5% sucrose (w/w) in water.
Where [18] appears, read: equal in sweetness to 6% sucrose (w/w) in water.
[19] abbreviates: equal in sweetness to 7% sucrose (w/w) in water.
Setting [20] is: equal in sweetness to 8% sucrose (w/w) in water.
Setting [21] is: equal in sweetness to 9% sucrose (w/w) in water.
Setting [22] is: equal in sweetness to 10% sucrose (w/w) in water.

As to `CC1=CC(=O)NS(=O)(=O)O1` [AS-K, 6-Methyl-1,2,3-oxathiazin-4(3H)-one-2,2-dioxide], the “Potency Sucrose = 1” value in test [1] (setting [4]) is recorded as 250 Sucrose = 1; in test [1] (setting [5]), 200 Sucrose = 1; in test [1] (setting [6]), 160 Sucrose = 1; in test [1] (setting [7]), 110 Sucrose = 1; in test [1] (setting [8]) it was 90 Sucrose = 1; in test [1] (setting [9]), 90 Sucrose = 1. Also, the “Potency Sucrose = 1” value in test [1] (setting [10]) worked out at 90 Sucrose = 1; in test [1] (setting [11]), 85 Sucrose = 1; in test [1] (setting [12]), 80 Sucrose = 1. For the same compound, the Relative sweetness in test [1] (at concentrations equivalent to 6-10% sucrose) is not above 90. The “Concentration (g/100 ml) ≡ 10% Sucrose” value in test [1] (setting [13]) stood at 0.1250 g/100 ml. In addition, the “Potency of Mixture” value in test [1] (setting [13]) is listed as 80. The “Equivalent Concentration %” value is reported as 0.0080% in test [1] (setting [14]); 0.0150% in test [1] (setting [15]); 0.0250% in test [1] (setting [16]); 0.0455% in test [1] (setting [17]); 0.0667% in test [1] (setting [18]); 0.0777% in test [1] (setting [19]). The “Equivalent Concentration %” value stood at 0.0889% in test [1] (setting [20]), 0.1059% in test [1] (setting [21]) and 0.1250% in test [1] (setting [22]). Further, the “Potency of Sweetening Agent in Product” value in test [2] (7-Up-type carbonated drink) is on record as less than 90; in test [2] (Cola carbonated drink) it was 90; in test [2] (Lemonade drink) it was less than 90; in test [2] (Orange gelatin dessert) it was less than 90; in test [2] (Peppermint hard candy) it was less than 90; in test [2] (Strawberry drink), less than 90. Besides, the “Potency of Sweetening Agent in Product” value is 90 in test [2] (Vanilla cakes), less than 90 in test [2] (Vanilla frozen dessert) and less than 90 in test [2] (Vanilla pudding). Besides, the “Sweetness relative to cane sugar” value in test [3] (in water at concentrations equivalent in sweetness to a 4% solution of cane sugar) is on record as 130. Moreover, in test [3] (in water), the “Concentration equivalent to 4% cane sugar” value is 0.031%.
As for `C[C@@H](NC(=O)[C@@H](N)CC(=O)O)C(=O)NC1C(C)(C)SC1(C)C` [CP-54,802, 3-(L-Aspartyl-D-alaninamido)-2,2,4,4-tetramethylthietane], the “Potency Sucrose = 1” value in test [1] (setting [4]) is on record as 2,900 Sucrose = 1; in test [1] (setting [5]), 2,850 Sucrose = 1; in test [1] (setting [6]), 2,800 Sucrose = 1; in test [1] (setting [7]), 2,500 Sucrose = 1; in test [1] (setting [8]), 2,300 Sucrose = 1; in test [1] (setting [9]), 2,250 Sucrose = 1. Also, the results for the “Potency Sucrose = 1” value in test [1] (setting [10]), in test [1] (setting [11]) and in test [1] (setting [12]) were 2,112 Sucrose = 1, 2,075 Sucrose = 1 and 2,000 Sucrose = 1, respectively. The “Equivalent Concentration %” value in test [1] (setting [14]) came out at 0.00069%; in test [1] (setting [15]), 0.00105%; in test [1] (setting [16]), 0.00143%; in test [1] (setting [17]), 0.002%; in test [1] (setting [18]), 0.0026%; in test [1] (setting [19]), 0.0031%. Moreover, the “Equivalent Concentration %” value in test [1] (setting [20]) was found to be 0.00378%; in test [1] (setting [21]), 0.0043%; in test [1] (setting [22]), 0.005%.
For `OC[C@H]1O[C@@](CO)(O[C@H]2O[C@H](CO)[C@@H](O)[C@H](O)[C@H]2O)[C@@H](O)[C@@H]1O` [Sucrose, reference compound], the “Potency of Sweetening Agent in Product” value in test [2] (7-Up-type carbonated drink), in test [2] (Cola carbonated drink), in test [2] (Lemonade drink), in test [2] (Orange gelatin dessert), in test [2] (Peppermint hard candy) and in test [2] (Strawberry drink) was 1 throughout. For the same compound, the “Potency of Sweetening Agent in Product” value in test [2] (Vanilla cakes), in test [2] (Vanilla frozen dessert) and in test [2] (Vanilla pudding) was 1 throughout.
